Test results reported in the supplement of paper PMC6045584.

Key:
Assay in all cases: area under dose-response curve of surviving fraction (unscaled, Aref=0) (surviving fraction x log10(nM)); higher = more resistant
Conditions in all cases: exposure time: 5 days; dose range 0.5-1000 nM
[1] = compound: CCn1c(C(=O)N(C2CC2)C2CC2)cc2c3c(ncn3C)c(Nc3cc(C)n(C)n3)nc21
Summary of the method: (§1)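 Tumour cell lines in 384-well plates were exposed for five days to eight inhibitor concentrations from 0.5 to 1000 nM. Viability was read by CellTiter-Glo luminescence, normalised to DMSO-only wells, in three screens per line. Dose-response survival curves were fitted to surviving fractions by 3-parameter logistic regression in the drc R package. Area under the curve is the unscaled activity area (Aref = 0) over log10 dose.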

SOTRASTAURIN/AEB071 = compound: CN1CCN(c2nc(C3=C(c4c[nH]c5ccccc45)C(=O)NC3=O)c3ccccc3n2)CC1 [SOTRASTAURIN/AEB071]
Summary of the method: as §1

SORAFENIB = compound: CNC(=O)c1cc(Oc2ccc(NC(=O)Nc3ccc(Cl)c(C(F)(F)F)c3)cc2)ccn1 [SORAFENIB]
Summary of the method: as §1

[2] = compound: CNCc1ccc(-c2[nH]c3cc(F)cc4c3c2CCNC4=O)cc1
Summary of the method: as §1

FORETINIB = compound: COc1cc2c(Oc3ccc(NC(=O)C4(C(=O)Nc5ccc(F)cc5)CC4)cc3F)ccnc2cc1OCCCN1CCOCC1 [FORETINIB]
Summary of the method: as §1

CRIZOTINIB = compound: C[C@@H](Oc1cc(-c2cnn(C3CCNCC3)c2)cnc1N)c1c(Cl)ccc(F)c1Cl [CRIZOTINIB]
Summary of the method: as §1

[3] = compound: C[C@@H](Oc1cc(-c2cnn(C3CCNCC3)c2)cnc1N)c1c(Cl)ccc(F)c1Cl
Summary of the method: as §1

ABIRATERONE = compound: C[C@]12CC[C@H](O)CC1=CC[C@@H]1[C@@H]2CC[C@]2(C)C(c3cccnc3)=CC[C@@H]12 [ABIRATERONE]
Summary of the method: as §1

TEMOZOLOMIDE = compound: Cn1nnc2c(C(N)=O)ncn2c1=O [TEMOZOLOMIDE]
Summary of the method: as §1

MLN-4924 = compound: NS(=O)(=O)OC[C@@H]1C[C@@H](n2ccc3c(N[C@H]4CCc5ccccc54)ncnc32)C[C@@H]1O [MLN-4924]
Summary of the method: as §1

OLAPARIB = compound: O=C(c1cc(Cc2n[nH]c(=O)c3ccccc23)ccc1F)N1CCN(C(=O)C2CC2)CC1 [OLAPARIB]
Summary of the method: as §1

XAV-939 = compound: Oc1nc(-c2ccc(C(F)(F)F)cc2)nc2c1CSCC2 [XAV-939]
Summary of the method: as §1

[4] = compound: COc1cc2ncnc(Nc3ccc(F)c(Cl)c3)c2cc1NC(=O)/C=C/CN1CCCCC1
Summary of the method: as §1

DASATINIB = compound: Cc1nc(Nc2ncc(C(=O)Nc3c(C)cccc3Cl)s2)cc(N2CCN(CCO)CC2)n1 [DASATINIB]
Summary of the method: as §1

| Test System | area under dose-response curve [1] | area under dose-response curve (SOTRASTAURIN/AEB071) | area under dose-response curve (SORAFENIB) | area under dose-response curve [2] | area under dose-response curve (FORETINIB) | area under dose-response curve (CRIZOTINIB) | area under dose-response curve [3] | area under dose-response curve (ABIRATERONE) | area under dose-response curve (TEMOZOLOMIDE) | area under dose-response curve (MLN-4924) | area under dose-response curve (OLAPARIB) | area under dose-response curve (XAV-939) | area under dose-response curve [4] | area under dose-response curve (DASATINIB) |
| --- | --- | --- | --- | --- | --- | --- | --- | --- | --- | --- | --- | --- | --- | --- |
| 22RV1 PROSTATE | 3.4 | 3.61 | 3.42 | 3.57 | 3.05 | 3.17 | 3 | 3.62 | 3.54 | 2.3 | 3.41 | 3.34 |  |  |
| A549 LUNG | 3.2 |  | 3.44 | 3.56 | 3.13 | 3.27 | 3.25 | 3.53 | 3.43 | 3.14 | 3.48 | 3.48 | 3.32 | 2.72 |
| CADOES1 SOFT TISSUE | 3.08 | 3.21 | 2.92 | 2.97 | 2.56 | 3.05 | 2.94 |  | 3.11 | 2.57 | 3.04 | 2.98 | 3 | 3.34 |
| CAL51 BREAST | 3.3 | 3.16 | 3.36 | 2.78 | 2.75 | 2.87 | 2.77 | 3.32 | 3.41 | 2.56 | 2.99 | 3.24 | 3.29 | 1.95 |
| CAL120 BREAST | 3.06 | 3.28 | 3.19 | 3.19 | 3.06 | 3.24 | 2.89 | 3.35 | 3.22 | 2.22 | 2.89 | 3.24 | 3.14 | 1.98 |
| CASKI CERVIX | 3.21 | 3.1 |  | 3.04 | 2.87 | 2.83 | 2.58 |  | 3.19 | 2.18 | 2.98 | 3.25 | 1.19 | 1.2 |
| COLO320DM LARGE INTESTINE | 3.77 | 3.45 | 3.67 | 3.27 | 3.16 | 3.21 | 3.01 | 3.36 | 3.45 | 3.14 | 3.46 | 3.19 | 3.2 | 3.52 |
| H23 LUNG | 3.2 | 3.58 | 3.89 | 3.63 | 3.19 | 3.48 | 3.24 | 3.65 | 3.33 | 2.48 | 3.67 | 2.94 | 1.51 | 2.14 |
| HCC78 LUNG | 2.67 | 3.62 | 3.05 | 3.18 | 1.78 | 2.26 | 2.08 | 3.32 | 2.97 | 1.64 | 3.38 | 2.69 | 2.51 | 1.88 |
| HELA CERVIX | 3.32 | 3.56 | 3.38 | 3.62 | 3.06 | 3.42 | 3.13 | 3.73 | 3.6 | 3.35 | 3.66 | 3.57 | 3.73 | 3.16 |
| HOS BONE | 3.32 | 3.38 | 3.42 | 3.35 | 3.06 | 3.13 | 3.05 | 3.5 | 3.42 | 2.11 | 3.37 | 3.4 | 3.27 | 2.29 |
| HOSMNG BONE | 3.39 | 3.24 |  | 3.01 | 2.05 | 2.38 | 2.33 | 3.41 | 3 | 3.01 | 3.29 | 3.14 | 3.18 | 2.21 |
| HSSYII SYNOVIAL | 3.02 | 2.99 | 3.17 | 2.44 | 2.59 | 2.85 | 2.49 | 3.22 | 3.23 | 1.85 | 2.67 | 3.04 | 3 | 2.17 |
| HT1080 SOFT TISSUE | 3.3 | 3.53 | 3.4 | 3.02 | 3.13 | 3.28 | 3.25 | 3.37 | 3.41 | 2.52 | 2.92 | 2.94 | 3.22 | 2.37 |
| JIMT1 BREAST | 3.27 | 3.24 | 3.34 | 3.03 | 3.01 | 3.18 | 3.01 | 3.3 | 3.4 | 3.19 | 3.01 | 3.26 | 2.5 | 1.66 |
| KPD BONE | 3.28 | 3.41 | 3.2 | 3.18 | 3.08 | 3.08 | 2.95 | 3.4 | 3.35 | 2.61 | 3.12 | 3.17 | 3.13 | 2.1 |
| LM7 BONE | 3.31 | 3.08 | 3.39 | 2.67 | 3.1 | 3.05 | 2.6 | 3.33 | 3.38 | 2.09 | 2.84 | 3.45 | 2.98 | 1.58 |
| LNCAP PROSTATE | 2.93 | 3.71 |  |  | 2.93 | 2.91 | 2.82 | 2.98 | 3.08 | 1.35 | 3.27 | 2.79 | 2.92 | 2.62 |

| Test System | area under dose-response curve [1] | area under dose-response curve (SOTRASTAURIN/AEB071) | area under dose-response curve (SORAFENIB) | area under dose-response curve [2] | area under dose-response curve (FORETINIB) | area under dose-response curve (CRIZOTINIB) | area under dose-response curve [3] | area under dose-response curve (ABIRATERONE) | area under dose-response curve (TEMOZOLOMIDE) | area under dose-response curve (MLN-4924) | area under dose-response curve (OLAPARIB) | area under dose-response curve (XAV-939) | area under dose-response curve [4] | area under dose-response curve (DASATINIB) |
| --- | --- | --- | --- | --- | --- | --- | --- | --- | --- | --- | --- | --- | --- | --- |
| MCF7 BREAST | 2.83 | 3.11 | 2.97 | 3.04 | 2.96 | 3.04 | 2.71 | 3.3 | 3.08 | 2.24 | 3.07 | 3.19 | 3.16 | 2.56 |
| MDAMB157 BREAST | 2.94 | 3.23 |  | 3.13 | 2.94 | 3.17 | 2.84 | 3.17 | 3.27 | 2.69 | 3.21 | 3.08 | 3.08 | 1.89 |
| MDAMB231 BREAST | 3.25 | 3.34 | 3.13 | 3.03 | 2.91 | 2.93 | 2.81 | 3.29 | 3.27 | 2.4 | 3.09 | 2.95 | 3.08 | 1.44 |
| MDAMB361 BREAST | 2.83 | 2.21 | 2.79 | 2.1 | 2.98 | 2.86 | 2.88 |  | 3.06 | 2.48 | 2.26 | 3.04 | 2.58 | 2.45 |
| MDAMB436 BREAST | 2.67 | 2.8 | 3.22 | 2.37 | 3.16 | 3.4 | 2.84 | 3.11 | 3.32 | 2.24 | 2.31 | 3.05 | 3.06 | 2.65 |
| MFM223 BREAST | 3.58 | 2.95 | 3.79 | 2.94 | 3.08 | 3.69 | 2.92 | 3.88 | 4.05 | 2.82 | 2.99 | 3.24 | 3.27 | 2.52 |
| MHM BONE | 3.28 | 3.52 | 3.47 | 3.49 | 3.2 | 3.27 | 3.21 | 3.43 | 3.31 |  | 3.42 | 3.28 | 3.28 | 2.44 |
| OS25HAL BONE | 3.23 | 3.43 | 3.2 |  | 2.85 | 3.21 | 3.14 | 3.44 | 3.52 | 2.39 | 3.36 | 3.23 | 3.34 | 2.28 |
| OSHN BONE | 3.38 | 3.32 | 3.51 | 3.21 | 3.09 | 3.28 | 3.17 | 3.67 | 3.58 | 2.48 | 3.28 | 3.53 | 3.52 | 2.81 |
| S68 BREAST |  | 3.45 | 3.49 | 2.67 | 2.65 | 2.72 | 2.76 | 3.31 | 3.53 | 2.21 | 2.85 | 3.19 | 2.49 | 1.44 |
| SG43 HEADNECK | 2.97 | 3.54 | 4.26 | 3.46 | 2.45 | 2.8 | 2.88 | 3.37 | 2.97 |  | 3.28 | 2.88 | 1.38 | 1.64 |
| SNU475 LIVER | 3.18 | 3.15 | 3.6 | 3.13 | 3.18 | 3.26 | 2.77 | 3.42 | 3.4 | 3.13 | 3.11 | 3.07 | 2.94 | 1.64 |
| SUM149 BREAST | 3.48 | 2.96 | 3.9 | 2.39 | 2.82 | 3.15 | 2.99 | 3.16 | 3.57 | 2.38 | 2.46 | 2.66 | 2.13 | 1.49 |
| SYO1 SYNOVIAL | 3.06 | 3.01 | 3.06 | 2.25 | 2.43 | 2.71 | 2.44 | 3.32 | 3.18 | 2.1 | 2.48 | 3.01 | 3.02 | 1.7 |
| T47D BREAST | 3.36 | 3.44 | 3.6 | 3.24 | 3.43 | 3.51 | 3.15 | 3.62 | 3.49 | 2.34 | 3.11 | 3.54 | 3.49 | 3.08 |
| U2OS BONE | 3.44 | 3.36 | 3.5 | 3.17 | 3 | 3.06 | 2.88 | 3.6 | 3.39 | 2.83 | 3.26 | 3.25 | 3.24 | 2.63 |
| VCAP PROSTATE | 3.54 | 3.27 | 3.73 | 3.23 | 3.06 | 3.04 | 2.88 | 3.72 | 3.44 | 2.21 | 3.59 | 3.13 | 3.12 | 3.15 |
